# Reference: US4268680A, “Heterocyclic derivatives of 1-(1,3-dioxolan-2-ylmethyl)-1H-imidazoles and 1H-1,2,4-triazoles” (Janssen Pharmaceutica N.V., priority 1979, dated 1981)
# Test system: Candida albicans
# Assay: Experiment B: Activity of compounds (I) against crop candidosis in turkeys
# Assay type: in vivo
# Conditions: Table II; medicated feed for 13 consecutive days; crops of 50% of the animals completely negative for Candida albicans
# Description: Experiment B: Activity of compounds (I) against crop candidosis in turkeys. Turkeys of 14 days old were infected in the crop with 4.10^6 Candida albicans cells, grown on Sabouraud broth for 48 hours at 37° C. and diluted with saline. The volume of the inoculum was 1 ml. The drug under investigation were premixed in 500 mg of lacton and thereafter admixed in 1000 g of meal without any additives. The concentration of the drug under investigation in the meal was expressed in mg/kg. The animals were given the medicated feed for 13 consecutive days starting on the day of infection. At the end of the experiment all animals were sacrificed. At autopsy the crops were removed, emptied and grinded in an ultra-turrax mixer in 15 ml of sterile saline. Colony counting was done on Sabouraud agar and the results given in Tables I and II represent the ED50, i.e., the dose of the drug whereby the crops of 50% of the animals were completely negative for Candida albicans.
compound,measurement,value
Clc1ccc(C2(Cn3cncn3)OCC(COc3ccc(-n4ccnc4)cc3)O2)c(Cl)c1 (stereo not shown),Crop candidosis in Turkeys: EO50 in mg/kg in feed,8 mg/kg in feed
